Literature values, collected in patent publication US20240043404A1 (AbbVie Inc., priority 2009, published 2024).

System: RS4;11 cells
Settings: RS4;11 acute lymphoblastic leukemia cell line; cited from earlier work

Structure (SMILES): CN(C)CC[C@H](CSc1ccccc1)Nc1ccc(S(=O)(=O)NC(=O)c2ccc(N3CCN(Cc4ccccc4-c4ccc(Cl)cc4)CC3)cc2)cc1[N+](=O)[O-] [ABT-737, N-(4-(4-((4′-chloro(1,1′-biphenyl)-2-yl)methyl)piperazin-1-yl)benzoyl)-4-(((1R)-3-(dimethylamino)-1-((phenylsulfanyl)methyl)propyl)amino)-3-nitrobenzenesulfonamide]
- sensitivity of RS4;11 cells to inhibitor: sensitive
